In article PMC9841524, “Structure-Based Rational Design of Small α-Helical Peptides with Broad-Spectrum Activity against Multidrug-Resistant Pathogens” (Journal of Medicinal Chemistry, 2022):
Read-outs that look alike come from different tables or passages of the source. Where no end group is shown, it is not given here.

Tests used:
[1] = system: human lung fibroblast cells (MRC-5), human embryonic kidney cells (HEK-293), human hepatic cells (HepaRG), HeKa cells; assay: 24 h cell viability assay (MTS); assay type: cell-based; conditions: all tested cells (MRC-5, HEK-293, HepaRG, HeKa), MTS, triplicate
Method: The in vitro cytotoxicity of 8a and 8b was evaluated using human lung fibroblast cells (MRC-5), human embryonic kidney cells (HEK-293), human hepatic cells (HepaRG), and human epidermal keratinocytes (HEKa). Cells were seeded at 10,000 per well in 0.1 mL of media in 96-well plates 24 h prior to the experiment. Lung and kidney cells were seeded in DMEM medium containing FBS (10%). Liver cells were seeded in William’s E medium with the GlutaMAX supplement. Epidermal keratinocytes were seeded in a Dermal Cell Basal medium supplemented with a keratinocyte growth kit. The peptides were added to each well in triplicates at a variable concentration of 10–250 μg/mL and incubated for 24h at 37 °C in a humidified atmosphere of 5% CO2. After the incubation period, the MTS solution (20 μL) was added to each well. Then, the cells were incubated for 2 h at 37 °C, and the cell viability was determined by measuring the absorbance at 490 nm using a SpectraMaxM2 microplate spectrophotometer. The percentage of cell survival was calculated as [(OD value of cells treated with the test mixture of compounds) – (OD value of culture medium)]/[(OD value of control cells) – (OD value of culture medium)] × 100%.

E. coli (ATCC 25922) = conditions: for MIC, E. coli (ATCC 25922): broth microdilution (CLSI), CAMHB, 37 °C, 24 h
In short: (§1)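 Inoculum 10^6 CFU/mL in CAMHB against 2-fold peptide series; salt variants used 150 mM NaCl, 4.5 mM KCl, 6 mM NH4Cl, 1 mM MgCl2, 2 mM CaCl2, or 25% FBS.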

MRSA (ATCC BAA-1556) = conditions: for MIC, MRSA (ATCC BAA-1556): broth microdilution (CLSI), CAMHB, 37 °C, 24 h
In short: as §1

[2] = system: K. pneumonia (ATCC BAA-2470); conditions: Gram-negative, carbapenem-resistant; CLSI microdilution, CAMHB, 37 °C, 24 h; highest MIC of three independent experiments in triplicate
In short: as §1

E. faecalis (ATCC 29212) = conditions: Gram-positive; CLSI microdilution, CAMHB, 37 °C, 24 h; highest MIC of three independent experiments in triplicate
In short: as §1

[3] = system: Klebsiella pneumonia (ATCC 13883); conditions: Gram-negative; CLSI microdilution, CAMHB, 37 °C, 24 h; highest MIC of three independent experiments in triplicate
In short: as §1

[4] = system: S. pneumoniae (ATCC 700677); conditions: Gram-positive, multi-drug resistant (penicillin, tetracycline, erythromycin); CAMHB + 2.5% lysed horse blood, 37 °C, 24 h; highest MIC of three independent experiments in triplicate
In short: as §1

[5] = system: Bacillus cereus (ATCC 13061); conditions: ATCC 13061, 24 h
In short: as §1

[6] = system: P. aeruginosa (ATCC BAA-1744); conditions: Gram-negative, resistant strain (marked a; imipenem resistant in Table S3); CLSI microdilution, CAMHB, 37 °C, 24 h; highest MIC of three independent experiments in triplicate
In short: as §1

[7] = system: A. baumannii (ATCC BAA1605); conditions: Gram-negative, footnote e ciprofloxacin (MDR in Table S3); CLSI microdilution, CAMHB, 37 °C, 24 h; highest MIC of three independent experiments in triplicate
In short: as §1

[8] = system: P. aeruginosa (ATCC 10145); conditions: ATCC 10145, 24 h
In short: as §1

[9] = system: Bacillus subtilis (ATCC 6633); conditions: ATCC 6633, 24 h
In short: as §1

E. coli (ATCC BAA-2452) = conditions: Gram-negative, NDM-1; CLSI microdilution, CAMHB, 37 °C, 24 h; highest MIC of three independent experiments in triplicate
In short: as §1

[10] = MH media without salt ions or serum, three independent experiments in triplicate
[11] = 10^6 CFU/mL, highest MIC of three independent experiments in triplicate

RWLRRWLRWWRR-NH2 [8a]
cell viability at 50 μg/mL [1]: below 60%
cell viability at 250 μg/mL [1]: below 30%
MIC, E. coli (ATCC 25922), CaCl2 (E. coli (ATCC 25922); ATCC 25922, 24 h): 25 µg/mL
MIC, E. coli (ATCC 25922), FBS (25%) (E. coli (ATCC 25922); ATCC 25922, 24 h): > 50 µg/mL
MIC, E. coli (ATCC 25922), KCl (E. coli (ATCC 25922); ATCC 25922, 24 h): 25 µg/mL
MIC, E. coli (ATCC 25922), MgCl2 (E. coli (ATCC 25922); ATCC 25922, 24 h): 50 µg/mL
MIC, E. coli (ATCC 25922), NH4Cl (E. coli (ATCC 25922); ATCC 25922, 24 h): 25 µg/mL
MIC, E. coli (ATCC 25922), NaCl (E. coli (ATCC 25922); ATCC 25922, 24 h): > 50 µg/mL
MIC, E. coli (ATCC 25922), Control (E. coli (ATCC 25922); [10]): 12.5 µg/mL
MIC, E. coli (ATCC 25922) (E. coli (ATCC 25922); [11]): 12.5 µg/mL
MIC, E. coli (ATCC 25922) (E. coli (ATCC 25922); value in parentheses (μM)): 6.49 µM
MIC, MRSA (ATCC BAA-1556), Control (MRSA (ATCC BAA-1556); [10]): 6.2 µg/mL
MIC, MRSA (ATCC BAA-1556) (MRSA (ATCC BAA-1556); [11]): 6.2 µg/mL
MIC, MRSA (ATCC BAA-1556), MgCl2 (MRSA (ATCC BAA-1556); media with 1 mM MgCl2, three independent experiments in triplicate): 6.2 µg/mL
MIC, MRSA (ATCC BAA-1556), CaCl2 (MRSA (ATCC BAA-1556); media with 2 mM CaCl2, three independent experiments in triplicate): 6.2 µg/mL
MIC, MRSA (ATCC BAA-1556), KCl (MRSA (ATCC BAA-1556); media with 4.5 mM KCl, three independent experiments in triplicate): 12.5 µg/mL
MIC, MRSA (ATCC BAA-1556), NH4Cl (MRSA (ATCC BAA-1556); media with 6 mM NH4Cl, three independent experiments in triplicate): 6.2 µg/mL
MIC, MRSA (ATCC BAA-1556), NaCl (MRSA (ATCC BAA-1556); media with 150 mM NaCl, three independent experiments in triplicate): 12.5 µg/mL
MIC, MRSA (ATCC BAA-1556), FBS (25%) (MRSA (ATCC BAA-1556); media with 25% fetal bovine serum, three independent experiments in triplicate): 50 µg/mL
MIC, MRSA (ATCC BAA-1556) (MRSA (ATCC BAA-1556); value in parentheses (μM)): 3.22 µM
MIC, K. pneumonia (ATCC BAA-2470) [2]: 12.5 µg/mL
MIC, E. faecalis (ATCC 29212) (E. faecalis (ATCC 29212)): 12.5 µg/mL
MIC, Klebsiella pneumonia (ATCC 13883) [3]: 12.5 µg/mL
MIC, S. pneumoniae (ATCC 700677) [4]: 12.5 µg/mL
MIC, Bacillus cereus (ATCC 13061) [5]: 6.2 µg/mL
MIC, P. aeruginosa (ATCC BAA-1744) [6]: 12.5 µg/mL
MIC, A. baumannii (ATCC BAA1605) [7]: 6.2 µg/mL
MIC, P. aeruginosa (ATCC 10145) [8]: 6.2 µg/mL
MIC, Bacillus subtilis (ATCC 6633) [9]: 3.1 µg/mL
MIC, E. coli (ATCC BAA-2452) (E. coli (ATCC BAA-2452)): 12.5 µg/mL
